The source made the active and inactive calls. No cut-off for these calls is given here.
Columns and labels:
U-937 [1] = assay: Induction of apoptosis in human U-937 cells assessed as early apoptotic cells at 40 uM measured after 4 hrs by Annexin PI staining based flow cytometry method (reference value: 1.95 %); format: functional
U-937 [2] = assay: Induction of apoptosis in human U-937 cells assessed as necrotic cells at 60 uM measured after 4 hrs by Annexin PI staining based flow cytometry method (reference value: 0.00 %); format: functional
U-937 [3] = assay: Induction of apoptosis in human U-937 cells assessed as assessed as increase in PARP cleavage measured after 24 hrs by Western blot analysis; format: functional, cell-based; settings: DDE = dose-dependent effect
U-937 [4] = assay: Induction of apoptosis in human U-937 cells assessed as early apoptotic cells at 10 uM measured after 4 hrs by Annexin PI staining based flow cytometry method (reference value: 1.95 %); format: functional
U-937 [5] = assay: Induction of apoptosis in human U-937 cells assessed as phosphatidylserine level measured after 4 hrs by Annexin V staining based flow cytometry analysis; format: functional, cell-based; settings: DDE = dose-dependent effect
U-937 [6] = assay: Induction of apoptosis in human U-937 cells assessed as increase in BFL-1 protein expression after 24 hrs by Western blot analysis; format: functional, cell-based; settings: DDE = dose-dependent effect
[7] = target: Transcriptional enhancer factor TEF-4 (Homo sapiens, UniProt Q15562); assay: Displacement of FAM- labeled YAP1 peptide from TEAD2 (217 to 447 residues) (unknown origin) expressed in Escherichia coli BL21 (DE3) assessed as inhibition constant incubated for 1.5 hrs by fluorescence polarization-based competitive binding assay
[8] = target: BCL2A11/BBC3 (Homo sapiens) (UniProt Q16548+Q9BXH1); assay: Inhibition of human BFL-1/PUMA protein-protein interaction in human Kasumi 1 cells assessed as increase in BFL-1 protein level at 20 to 80 uM measured after 5 hrs by co-immunoprecipitation assay; format: cell-based; settings: dose 20-80 µM
[9] = target: E3 ubiquitin-protein ligase Mdm2 (Homo sapiens, UniProt Q00987); assay: Displacement of FAM- labeled PDI peptide from MDM2 (1 to 118 residues) (unknown origin) expressed in Escherichia coli BL21 (DE3) assessed as inhibition constant incubated for 1.5 hrs by fluorescence polarization-based competitive binding assay
MV4-11 [10] = assay: Growth inhibition of human MV4-11 cells incubated for 4 days by WST assay; format: functional, cell-based; settings: MV4-11, 96 h
U-937 [11] = assay: Induction of apoptosis in human U-937 cells assessed as late apoptotic cells at 40 uM measured after 4 hrs by Annexin PI staining based flow cytometry method (reference value: 1.62 %); format: functional
[12] = target: Bromodomain-containing protein 2 (Homo sapiens, UniProt P25440); assay: Binding affinity to recombinant human BRD2 BD2 (349-460 residues) assessed as inhibition constant by fluorescence polarization assay
[13] = target: Programmed cell death protein 1/Programmed cell death 1 ligand 1 (Homo sapiens, UniProt Q15116+Q9NZQ7); assay: Inhibition of biotinylated tagged PD-1 (unknown origin)/His tagged PD-L1 (unknown origin) protein-protein interaction assessed as inhibition constant incubated for 90 mins by AlphaLISA assay; format: protein-complex assay
MM1.S = assay: Growth inhibition of human MM1.S cells incubated for 4 days by WST assay; format: functional, cell-based; settings: 96 h
MV4-11 [14] = assay: Upregulation of BFL-1protein expression in human MV4-11 cells by Western blotting analysis; format: functional, cell-based
[15] = target: Apoptosis regulator Bcl-2 (Homo sapiens, UniProt P10415); assay: Displacement of fluorescein tagged BIM peptide from N-terminal His tagged human BCL-2 (1 to 170 residues) expressed in Escherichia coli BL21 (DE3) assessed as inhibition constant incubated for 1.5 hrs by fluorescence polarization-based competitive binding assay
Homo sapiens = organism: Homo sapiens; assay: Displacement of fluorescein tagged BID BH3 peptide from His-tagged recombinant BFL-1 (1 to 151 residues) C55A mutant (unknown origin) expressed in Escherichia coli BL21 (DE3) assessed as fold decrease in inhibition constant incubated for 24 hrs by fluorescence polarization-based competitive binding assay relative to wild type
U-937 [16] = assay: Growth inhibition of human U-937 cells incubated for 4 days by WST assay; format: functional, cell-based; settings: U-937, 96 h
U-937 [17] = assay: Induction of apoptosis in human U-937 cells assessed as necrotic cells at 40 uM measured after 4 hrs by Annexin PI staining based flow cytometry method (reference value: 0.00 %); format: functional
[18] = Displacement of FAM- labeled PDI peptide from MDM4 C17S mutant (14 to 111 residues) (unknown origin) expressed in Escherichia coli BL21 (DE3) assessed as inhibition constant incubated for 1.5 hrs by fluorescence polarization-based competitive binding assay; parameters: species or system Homo sapiens
U-937 [19] = assay: Induction of apoptosis in human U-937 cells assessed as late apoptotic cells at 10 uM measured after 4 hrs by Annexin PI staining based flow cytometry method (reference value: 1.62 %); format: functional

Programmed cell death protein 1/Programmed cell death 1 ligand 1, sequence (Q15116 whole entry): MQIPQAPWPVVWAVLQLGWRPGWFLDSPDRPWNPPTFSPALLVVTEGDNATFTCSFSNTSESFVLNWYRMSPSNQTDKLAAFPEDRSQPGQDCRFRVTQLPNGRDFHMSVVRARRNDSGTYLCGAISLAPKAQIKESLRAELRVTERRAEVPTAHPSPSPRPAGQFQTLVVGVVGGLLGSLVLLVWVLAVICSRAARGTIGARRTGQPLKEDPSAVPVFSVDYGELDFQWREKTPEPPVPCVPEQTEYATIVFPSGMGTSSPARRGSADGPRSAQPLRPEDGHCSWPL
Programmed cell death protein 1/Programmed cell death 1 ligand 1, sequence (Q9NZQ7 whole entry): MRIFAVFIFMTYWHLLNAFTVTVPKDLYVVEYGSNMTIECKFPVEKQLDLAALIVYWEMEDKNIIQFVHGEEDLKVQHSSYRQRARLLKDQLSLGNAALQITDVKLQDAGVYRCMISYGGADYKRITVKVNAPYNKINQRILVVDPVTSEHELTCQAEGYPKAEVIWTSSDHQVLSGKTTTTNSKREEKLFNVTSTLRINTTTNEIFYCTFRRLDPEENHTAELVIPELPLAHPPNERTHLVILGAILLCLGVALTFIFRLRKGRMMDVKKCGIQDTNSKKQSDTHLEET
Bromodomain-containing protein 2, sequence (P25440 whole entry, the tested form may be a part): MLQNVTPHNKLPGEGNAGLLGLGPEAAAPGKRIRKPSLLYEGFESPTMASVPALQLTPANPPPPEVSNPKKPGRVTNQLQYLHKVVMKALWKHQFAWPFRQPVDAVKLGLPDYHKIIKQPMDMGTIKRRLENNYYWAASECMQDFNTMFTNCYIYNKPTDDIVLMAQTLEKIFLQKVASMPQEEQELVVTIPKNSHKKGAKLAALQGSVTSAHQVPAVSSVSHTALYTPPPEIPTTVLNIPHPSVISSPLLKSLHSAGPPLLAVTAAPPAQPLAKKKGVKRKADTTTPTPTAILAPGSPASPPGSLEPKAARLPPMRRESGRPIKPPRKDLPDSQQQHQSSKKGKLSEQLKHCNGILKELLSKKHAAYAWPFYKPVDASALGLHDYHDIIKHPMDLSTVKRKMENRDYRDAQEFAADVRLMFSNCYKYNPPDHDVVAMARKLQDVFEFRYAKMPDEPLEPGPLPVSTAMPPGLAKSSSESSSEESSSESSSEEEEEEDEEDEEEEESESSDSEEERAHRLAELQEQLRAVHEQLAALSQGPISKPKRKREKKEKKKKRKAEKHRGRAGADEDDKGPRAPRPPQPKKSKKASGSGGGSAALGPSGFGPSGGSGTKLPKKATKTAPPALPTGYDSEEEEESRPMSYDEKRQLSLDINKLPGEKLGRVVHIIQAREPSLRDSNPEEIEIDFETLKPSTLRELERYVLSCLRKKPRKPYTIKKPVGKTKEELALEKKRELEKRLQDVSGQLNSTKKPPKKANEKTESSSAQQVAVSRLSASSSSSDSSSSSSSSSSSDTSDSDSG
Transcriptional enhancer factor TEF-4, sequence (Q15562 whole entry, the tested form may be a part): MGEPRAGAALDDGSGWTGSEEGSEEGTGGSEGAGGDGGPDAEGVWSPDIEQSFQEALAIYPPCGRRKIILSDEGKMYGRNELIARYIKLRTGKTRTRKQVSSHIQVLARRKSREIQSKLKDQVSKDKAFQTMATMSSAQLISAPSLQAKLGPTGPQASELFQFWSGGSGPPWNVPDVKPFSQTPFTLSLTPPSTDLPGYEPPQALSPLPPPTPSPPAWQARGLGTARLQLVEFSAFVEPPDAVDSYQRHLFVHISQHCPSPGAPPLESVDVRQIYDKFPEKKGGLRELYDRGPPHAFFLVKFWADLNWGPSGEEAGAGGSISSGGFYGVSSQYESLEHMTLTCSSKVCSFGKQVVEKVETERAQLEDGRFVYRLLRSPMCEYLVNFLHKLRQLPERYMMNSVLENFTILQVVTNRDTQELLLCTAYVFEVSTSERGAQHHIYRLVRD
BCL2A11/BBC3 (Homo sapiens), sequence (Q16548 whole entry, looked up, the tested form may be a part): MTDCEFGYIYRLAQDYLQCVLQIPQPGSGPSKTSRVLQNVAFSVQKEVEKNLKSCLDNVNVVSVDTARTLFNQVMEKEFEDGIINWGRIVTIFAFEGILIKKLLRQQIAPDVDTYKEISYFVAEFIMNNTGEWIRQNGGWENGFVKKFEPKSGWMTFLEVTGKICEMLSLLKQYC
BCL2A11/BBC3 (Homo sapiens), sequence (Q9BXH1 whole entry, looked up, the tested form may be a part): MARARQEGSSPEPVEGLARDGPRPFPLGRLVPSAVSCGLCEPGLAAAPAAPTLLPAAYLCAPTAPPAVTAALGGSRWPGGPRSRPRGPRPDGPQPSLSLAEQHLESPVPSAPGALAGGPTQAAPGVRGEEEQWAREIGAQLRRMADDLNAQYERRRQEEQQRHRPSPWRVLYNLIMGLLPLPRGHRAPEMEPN
E3 ubiquitin-protein ligase Mdm2, sequence (Q00987 whole entry, the tested form may be a part): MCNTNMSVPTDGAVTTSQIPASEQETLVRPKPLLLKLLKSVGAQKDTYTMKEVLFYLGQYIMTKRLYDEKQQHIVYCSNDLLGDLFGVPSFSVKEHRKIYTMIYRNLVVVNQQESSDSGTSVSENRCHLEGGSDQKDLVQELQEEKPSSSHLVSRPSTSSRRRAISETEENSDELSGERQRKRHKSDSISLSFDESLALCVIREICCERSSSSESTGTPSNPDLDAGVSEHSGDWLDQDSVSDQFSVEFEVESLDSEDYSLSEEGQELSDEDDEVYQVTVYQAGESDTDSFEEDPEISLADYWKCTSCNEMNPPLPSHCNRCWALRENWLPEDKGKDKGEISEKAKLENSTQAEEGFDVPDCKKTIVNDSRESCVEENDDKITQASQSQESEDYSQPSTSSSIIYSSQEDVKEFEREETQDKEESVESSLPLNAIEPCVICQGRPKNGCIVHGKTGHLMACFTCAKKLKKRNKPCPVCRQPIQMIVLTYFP
Apoptosis regulator Bcl-2, sequence (P10415 whole entry, the tested form may be a part): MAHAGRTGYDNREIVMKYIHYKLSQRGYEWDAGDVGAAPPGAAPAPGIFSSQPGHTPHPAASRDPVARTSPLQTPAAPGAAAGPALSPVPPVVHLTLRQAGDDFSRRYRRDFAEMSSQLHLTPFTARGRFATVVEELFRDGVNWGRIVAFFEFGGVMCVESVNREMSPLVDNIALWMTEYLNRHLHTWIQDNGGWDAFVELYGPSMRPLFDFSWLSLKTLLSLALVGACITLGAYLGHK

In the case of C=CC(=O)N1CCN(c2c3ccc(-c4cccc(F)c4)cc3nn2Cc2ccccc2)CC1, the Activity (U-937 [1]) is reported as 5.52%, the Activity (U-937 [2]) is reported as 11.37% and the Activity (U-937 [3]) is reported as “Dde”. For the same compound, the Activity (U-937 [4]) was 6.03%, the Activity (U-937 [5]) was “Dde” and the Activity (U-937 [6]) was “Dde”. The Ki [7] was greater than 400 µM, the Activity [8] was “Active” and the Ki [9] was greater than 400 µM. It also gave an IC50 (MV4-11 [10]) of 3.9 µM, an Activity (U-937 [11]) of 20.83% and a Ki [12] greater than 400 µM. For the same compound, the Ki [13] was greater than 400 µM, the IC50 (MM1.S) was 6.8 µM and the Activity (MV4-11 [14]) was “Active”. For the same compound, the Ki [15] was greater than 400 µM, the fold change (FC) (Homo sapiens) was 21 and the IC50 (U-937 [16]) was 2.8 µM. For the same compound, the Activity (U-937 [17]) was 7.22%, the Ki [18] was greater than 400 µM and the Activity (U-937 [19]) was 2.19%.
